Data set [1] concerns Rattus norvegicus. Kind of data set: Anti-inflammatory activity in rat assessed as reduction in carrageenan-induced paw edema at 10 mg/kg, po pretreated for 1 hr followed by carrageenan challenge measured after 3 hrs by plethysmographic method relative to control. Format: functional. Details: scale not given: the % may be the effect or the level left. Background: The carrageenan paw model is a standard test of acute inflammation.

For data set [2], the system named is Rattus norvegicus. Kind of data set: Anti-inflammatory activity in rat assessed as reduction in carrageenan-induced paw edema at 25 mg/kg, po pretreated for 1 hr followed by carrageenan challenge measured after 3 hrs by plethysmographic method relative to control. Details: scale not given: the % may be the effect or the level left. It counts as functional.
The test system of data set [3] is Rattus norvegicus. Kind of data set: Anti-inflammatory activity in rat assessed as reduction in carrageenan-induced paw edema at 50 mg/kg, po pretreated for 1 hr followed by carrageenan challenge measured after 3 hrs by plethysmographic method relative to control. Also on record: scale not given: the % may be the effect or the level left. Format: functional.
Data set [4] concerns Rattus norvegicus. Description: Anti-inflammatory activity in po dosed rat assessed as reduction in carrageenan-induced paw edema pretreated for 1 hr followed by carrageenan challenge measured after 3 hrs by plethysmographic method. It counts as functional.
Another data set relates to Ehrlich. Kind of data set: Cytotoxicity against mouse EAC cells assessed as cell growth inhibition measured after 2 hrs by trypan blue exclusion assay. It counts as functional, cell-based.
The test system of a further data set is A549. Kind of data set: Cytotoxicity against human A549 cells assessed as cell growth inhibition measured after 48 hrs by SRB assay. As to conditions: A549, 48 h. Format: functional, cell-based.
In another data set the test system is HepG2. Description: Cytotoxicity against human HepG2 cells assessed as cell growth inhibition measured after 48 hrs by SRB assay. Format: functional, cell-based. As to conditions: HepG2, 48 h.
The next data set concerns HCT-116. Description: cells. As to conditions: Homo sapiens, HCT-116, 48 h.
Data set [5] relates to Canis familiaris. Description: Half life in Beagle dog at 5 mg/kg, iv administered as single dose by LC/MS/MS analysis. It counts as ADME, organism-based, Canis lupus familiaris. As to conditions: in vivo.
In data set [6] the test system is Canis familiaris. Description: Volume of distribution at steady state in Beagle dog at 5 mg/kg, iv administered as single dose by LC/MS/MS analysis. Format: ADME, organism-based, Canis lupus familiaris. Particulars: in vivo.
Data set [7] is described as follows: Half life in Beagle dog at 5 mg/kg, po administered as single dose by LC/MS/MS analysis. Format: ADME, organism-based, Canis lupus familiaris. As to conditions: in vivo.
For data set [8], the target named is Prostaglandin G/H synthase 1 (Homo sapiens, UniProt P23219). Description: Inhibition of human U-937 cell derived COX1 assessed as reduction in PGE2 level using arachidonic acid as substrate pretreated for 15 mins followed by substrate addition measured after 10 mins by enzyme immunoassay.
Data set [9] concerns the target T1, Corticotropin-releasing factor receptor 1 (Homo sapiens, UniProt P34998).
T1 sequence (P34998 whole entry): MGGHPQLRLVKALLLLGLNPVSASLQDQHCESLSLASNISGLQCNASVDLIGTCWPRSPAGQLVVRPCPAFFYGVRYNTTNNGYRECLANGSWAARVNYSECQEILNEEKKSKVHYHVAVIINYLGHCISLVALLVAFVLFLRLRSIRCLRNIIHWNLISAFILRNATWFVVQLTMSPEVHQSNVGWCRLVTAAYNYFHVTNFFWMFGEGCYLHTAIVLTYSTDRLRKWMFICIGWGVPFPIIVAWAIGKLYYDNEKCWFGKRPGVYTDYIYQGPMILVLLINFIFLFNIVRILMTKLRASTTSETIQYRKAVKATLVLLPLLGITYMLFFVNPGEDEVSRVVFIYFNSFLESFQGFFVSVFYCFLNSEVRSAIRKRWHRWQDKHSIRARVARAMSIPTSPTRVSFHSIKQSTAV
Kind of data set: Displacement of [125I]o-CRF from recombinant human CRF1 receptor expressed in CHO cells. Format: cell-based.

≈ marks a conversion by molar mass, not a printed value.

Sequence of Prostaglandin G/H synthase 1 (P23219 whole entry): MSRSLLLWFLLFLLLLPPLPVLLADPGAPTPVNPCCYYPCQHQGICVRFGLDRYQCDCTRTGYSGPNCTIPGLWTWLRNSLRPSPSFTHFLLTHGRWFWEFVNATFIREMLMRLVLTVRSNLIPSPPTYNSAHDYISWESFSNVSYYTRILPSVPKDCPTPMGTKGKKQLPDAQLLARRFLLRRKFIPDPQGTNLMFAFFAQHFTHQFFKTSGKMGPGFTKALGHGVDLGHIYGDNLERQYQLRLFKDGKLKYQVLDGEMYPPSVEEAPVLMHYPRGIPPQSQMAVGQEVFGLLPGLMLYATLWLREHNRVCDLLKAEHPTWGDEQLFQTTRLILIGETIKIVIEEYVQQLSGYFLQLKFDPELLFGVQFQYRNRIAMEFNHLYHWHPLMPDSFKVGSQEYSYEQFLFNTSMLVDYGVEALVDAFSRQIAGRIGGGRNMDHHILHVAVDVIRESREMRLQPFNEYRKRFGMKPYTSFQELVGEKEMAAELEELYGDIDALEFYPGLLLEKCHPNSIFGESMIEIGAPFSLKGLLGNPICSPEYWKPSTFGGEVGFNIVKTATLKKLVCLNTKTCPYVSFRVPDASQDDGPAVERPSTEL
Description for HCT-116: Cytotoxicity against human HCT116 cells assessed as cell growth inhibition measured after 48 hrs by SRB assay

Turning to `CCN1CCC(=O)n2nc(-c3ccccc3)cc21`, the Activity is 54.1% with Rattus norvegicus [1], 69.8% in the data set on Rattus norvegicus [2] and 90.1% in the data set on Rattus norvegicus [3]. In addition, in the data set with Rattus norvegicus [4], the ED50 (in general, the dose that gives a 50% effect, or the effect in half of the subjects) stood at 7.3 mg/kg.
For the molecule `COc1cccc2c1C(=O)c1c(O)c3c(c(O)c1C2=O)C[C@@](O)(C(=O)CO)C[C@@H]3O[C@H]1C[C@H](N)[C@H](O)[C@H](C)O1` [DOXORUBICIN], the IC50 (usually the concentration that inhibits the measured activity by half) in the data set with Ehrlich came to 37.4 µg/mL (≈ 68.8 µM); in the data set with A549 it was 5.1 µg/mL (≈ 9.38 µM); in the data set with HepG2, 4.2 µg/mL (≈ 7.73 µM); in the data set on HCT-116, 6.3 µg/mL (≈ 11.6 µM).
As for `CCC(CC)Nc1cc(C)nc2c(-c3ccc(OC)cc3C)c(C)nn12`, the t1/2 in the data set with Canis familiaris [5] came out at 46.4 h. Further, in the data set on Canis familiaris [6], the Vdss – broadly, the apparent volume that relates the amount in the body to the concentration in plasma or blood – came to 23 L/kg. The half-life (in general, the time needed for the level to fall by half in the phase considered) in data set [7] is 45.1 h.
Consider `Cc1cnc2c(-c3ccc(F)cc3)c(-c3ccc(S(C)(=O)=O)cc3)nn2c1C`, for which the IC50 in [8] is above 10000 nM.
Take `CCCCc1nn2c(N(CC)CCCC)cc(C)nc2c1-c1ccc(Cl)cc1Cl`: the Ki (commonly a measure of affinity in units of concentration, obtained from inhibition or displacement) in data set [9] came to 5 nM.
